Measurements reported in patent US20110318768A1, “METHOD FOR DETERMINING SENSITIVITY OF TUMOR CELLS TO TYROSINE KINASE INHIBITOR AND COMPUTER PROGRAM PRODUCT” (SYSMEX CORPORATION, priority 2010, published 2011).

Assays:
Test in all cases: Tyrosine kinase activity inhibition rate in cell membrane fraction (Poly-Glu4-Tyr substrate)
Assay type in all cases: biochemical
[1] = tested on: tyrosine kinase in cell membrane fraction of UACC812
Protocol: (§1) Breast cancer cell lines shown in Table 3 were cultured in a 150 mm dish so as to be about 80% confluent, the cells were recovered using PBS and a scraper, and a cell pellet was obtained by centrifugal operation (900×g, for 5 minutes, at 4° C.). The pellet was frozen with liquid nitrogen and stored at −80° C. until preparation of the measurement sample.
(§2) 500 μl of NP40 (−) solubilized buffer (20 mM HEPES (pH 7.4)), (w/v) % glycerol, 0.2% protease inhibitor cocktail (#P8340: Sigma-Aldrich (product composition: 104 mM AEBSF, 80 μM aprotinin, 4 mM bestatin, 1.4 mM E-64, 2 mM leupeptin, 1.5 mM Pepstatin A), 50 mM NaF and 200 μM Na3VO4) was added to the cell pellet, followed by stirring for 2 seconds three times using a vortex mixer. After being allowed to stand for 10 minutes, the soluble fraction was removed by centrifugal operation (at 20000×g, for 30 minutes, at 4° C.). The obtained pellet was resuspended in 500 μl of NP40 (−) solubilized buffer, the soluble fraction was again removed by centrifugal operation (at 20000×g, for 20 minutes, at 4° C.), and the pellet was washed. The pellet was resuspended by adding 500 μl of NP40 (+) solubilized buffer (a buffer prepared by adding NP-40 to the NP40 (−) solubilized buffer at a final concentration of 1%) to the pellet, pipetting fifty times, and vortexing for 2 seconds three times. After being allowed to stand for 10 minutes, a cell membrane fraction containing a membrane protein was obtained by centrifugal operation (at 20000×g, for 40 minutes, at 4° C.). The protein concentration of the fraction was measured by DC protein assay (#500-0116 JA: Bio-Rad) and the fraction was used as a sample for kinase activity measurement. The sample was frozen with liquid nitrogen and stored at −80° C. until used for the following kinase activity measurement.
(§3) NeutrAvidin Coated Plates (HBC) (96 white plate; #15509: Pierce) were washed three times with 300 μl of TBS-T (20 mM Tris-HCl (pH 7.4)), 150 mM NaCl, 0.1% Tween), and then 100 μl of Poly-Glu4-Tyr biotin conjugate (#12440: Upstate) which had been diluted to 1 μg/ml with TBS (20 mM Tris-HCl (pH 7.4), 150 mM NaCl) was added to the wells. After shaking at 37° C. and 400 rpm for 90 minutes, the wells were washed with 300 μl of TBS-T three times and a measuring plate was obtained.
(§4) The measurement sample was diluted with a kinase buffer (20 mM HEPES (pH 7.4), 25 mM MgCl2, 1.25 mM MnCl2, 250 μM Na3VO4, 12.5 (w/v) % glycerol) so as to adjust the protein concentration to 6.25 μg/ml. The diluted measurement sample was transferred to wells of a 96 well V bottom plate. A DMSO solution (inhibitor concentration: 5 mM) containing one type of tyrosine kinase inhibitors (Inhibitors 1 to 10 shown in Table 6) was added to the wells at a ratio of 1:160 based on the diluted measurement sample solution, followed by mixing thereof. As the control, DMSO was added to the diluted measurement sample at the same ratio as the solution of the inhibitor. The used tyrosine kinase inhibitors are represented as Inhibitors 1 to 10 in Table 6.
(§5) After addition of the inhibitors, a mixed solution of the measurement sample and the inhibitor was allowed to stand at room temperature for 10 minutes. 40 μl of the mixed solution was transferred to wells of the measuring plate and 10 μl of an ATP solution (20 mM HEPES (pH 7.4), […]) as the phosphate group donor was added to the wells.
(§6) The composition of the solution in the wells is as follows: protein concentration: 5 μg/ml, 20 mM HEPES (pH 7.4), 20 mM MgCl2, 1 mM MnCl2, 200 μM Na3VO4, 10 (w/v) % glycerol, 25 μM ATP, 25 μM kinase inhibitor.
(§7) After shaking the measuring plate at 37° C. and 400 rpm for 60 minutes, the solution was removed from the measuring plate, and the wells were washed with 300 μl of TBS-T three times. 100 μl of Starting Block T20 (TBS) (#37543: Pierce) as a blocking solution was added to the wells, followed by blocking at 37° C. and 400 rpm for 10 minutes. The blocking solution was removed from the measuring plate. […]

[2] = tested on: tyrosine kinase in cell membrane fraction of AU565
Protocol: as §1, §2, §3, §4, §5, §6, §7

[3] = tested on: tyrosine kinase in cell membrane fraction of MCF7
Protocol: as §1, §2, §3, §4, §5, §6, §7

[4] = tested on: tyrosine kinase in cell membrane fraction of MDA-MB-468
Protocol: as §1, §2, §3, §4, §5, §6, §7

[5] = tested on: tyrosine kinase in cell membrane fraction of MDA-MB-415
Protocol: as §1, §2, §3, §4, §5, §6, §7

[6] = tested on: tyrosine kinase in cell membrane fraction of HCC1419
Protocol: as §1, §2, §3, §4, §5, §6, §7

[7] = tested on: tyrosine kinase in cell membrane fraction of HCC1428
Protocol: as §1, §2, §3, §4, §5, §6, §7

[8] = tested on: tyrosine kinase in cell membrane fraction of HCC1569
Protocol: as §1, §2, §3, §4, §5, §6, §7

[9] = tested on: tyrosine kinase in cell membrane fraction of HCC202
Protocol: as §1, §2, §3, §4, §5, §6, §7

[10] = tested on: tyrosine kinase in cell membrane fraction of HCC1806
Protocol: as §1, §2, §3, §4, §5, §6, §7

[11] = tested on: tyrosine kinase in cell membrane fraction of CAMA-1
Protocol: as §1, §2, §3, §4, §5, §6, §7

[12] = tested on: tyrosine kinase in cell membrane fraction of SK-BR-3
Protocol: as §1, §2, §3, §4, §5, §6, §7

[13] = tested on: tyrosine kinase in cell membrane fraction of MDA-MB-435S
Protocol: as §1, §2, §3, §4, §5, §6, §7

[14] = tested on: tyrosine kinase in cell membrane fraction of HCC1937
Protocol: as §1, §2, §3, §4, §5, §6, §7

[15] = tested on: tyrosine kinase in cell membrane fraction of MDA-MB-453
Protocol: as §1, §2, §3, §4, §5, §6, §7

[16] = tested on: tyrosine kinase in cell membrane fraction of MDA-MB-231
Protocol: as §1, §2, §3, §4, §5, §6, §7

[17] = tested on: tyrosine kinase in cell membrane fraction of HS578T
Protocol: as §1, §2, §3, §4, §5, §6, §7

[18] = 25 μM kinase inhibitor, 25 μM ATP

In the case of `COc1cc2ncnc(Nc3ccc(Oc4ccccc4)cc3)c2cc1OC` [Inhibitor 10, 4-(4′-phenoxyanilino)-6,7-dimethoxyquinazoline], the Inhibition rate ([1]; UACC812, 25 μM kinase inhibitor, 25 μM ATP) is reported as 81.5%, the “Example 1 Inhibitory capacity of Src inhibitor” value (“Example 1 Inhibitory capacity” below) ([1]; UACC-812) is reported as “high (the term “high” means a cell line whose inhibition rate of the Src inhibitor is more than the threshold value)” and the “Example 1 Inhibitory capacity” value [2] is reported as “low (the term “low” means a cell line whose inhibition rate of the Src inhibitor is lower than the threshold value (=43.4%))”. For the same compound, the Inhibition rate [2, 18] was 36.8%, the “Example 1 Inhibitory capacity” value [3] was “high (the term “high” means a cell line whose inhibition rate of the Src inhibitor is more than the threshold value)” and the Inhibition rate [3, 18] was 49.2%. The “Example 1 Inhibitory capacity” value [4] was “high (the term “high” means a cell line whose inhibition rate of the Src inhibitor is more than the threshold value)”, the Inhibition rate [4, 18] was 81.0% and the “Example 1 Inhibitory capacity” value [5] was “high (the term “high” means a cell line whose inhibition rate of the Src inhibitor is more than the threshold value)”. The Inhibition rate [5, 18] was 68.6%, the “Example 1 Inhibitory capacity” value [6] was “low (the term “low” means a cell line whose inhibition rate of the Src inhibitor is lower than the threshold value (=43.4%))” and the Inhibition rate [6, 18] was 36.3%. The “Example 1 Inhibitory capacity” value [7] was “high (the term “high” means a cell line whose inhibition rate of the Src inhibitor is more than the threshold value)”, the Inhibition rate [7, 18] was 43.7% and the “Example 1 Inhibitory capacity” value [8] was “high (the term “high” means a cell line whose inhibition rate of the Src inhibitor is more than the threshold value)”. The Inhibition rate [8, 18] was 71.3%, the “Example 1 Inhibitory capacity” value [9] was “low (the term “low” means a cell line whose inhibition rate of the Src inhibitor is lower than the threshold value (=43.4%))” and the Inhibition rate [9, 18] was 26.3%. For the same compound, the “Example 1 Inhibitory capacity” value [10] was “high (the term “high” means a cell line whose inhibition rate of the Src inhibitor is more than the threshold value)”, the Inhibition rate [10, 18] was 67.1% and the “Example 1 Inhibitory capacity” value [11] was “low (the term “low” means a cell line whose inhibition rate of the Src inhibitor is lower than the threshold value (=43.4%))”. The Inhibition rate [11, 18] was 34.6%, the “Example 1 Inhibitory capacity” value [12] was “low (the term “low” means a cell line whose inhibition rate of the Src inhibitor is lower than the threshold value (=43.4%))” and the Inhibition rate [12, 18] was 43.3%. The “Example 1 Inhibitory capacity” value [13] was “high (the term “high” means a cell line whose inhibition rate of the Src inhibitor is more than the threshold value)”, the Inhibition rate [13, 18] was 44.9% and the “Example 1 Inhibitory capacity” value [14] was “high (the term “high” means a cell line whose inhibition rate of the Src inhibitor is more than the threshold value)”. For the same compound, the Inhibition rate [14, 18] was 50.1%, the “Example 1 Inhibitory capacity” value [15] was “low (the term “low” means a cell line whose inhibition rate of the Src inhibitor is lower than the threshold value (=43.4%))” and the Inhibition rate [15, 18] was 16.3%. For the same compound, the “Example 1 Inhibitory capacity” value [16] was “high (the term “high” means a cell line whose inhibition rate of the Src inhibitor is more than the threshold value)”, the Inhibition rate [16, 18] was 63.6% and the “Example 1 Inhibitory capacity” value [17] was “high (the term “high” means a cell line whose inhibition rate of the Src inhibitor is more than the threshold value)”. For the same compound, the Inhibition rate [17, 18] was 58.2%.
